Measurements: patent publication US6872712B1, “Cyclic glycerophosphates and analogs thereof” (Yeda Research and Development Co. Ltd., priority 1999, dated 2005)
One block for each compound: values may come before it.

Experiments:
[1] = Stability of cyclic phosphates in PBS / aqueous solution (TLC); type: physicochemical; conditions: 10 mg/ml in PBS, 37°, up to 24 hours
[2] = Stability of cyclic phosphates in cell lysates (TLC); conditions: 10 mg/ml in PBS mixed with CHO or NIH-3T3 cell lysate (0.1 mg/ml protein), 37°, up to 24 hours
[3] = system: tyrosine phosphorylated proteins in CHO cells; assay: Tyrosine phosphorylation in CHO cells (Western blot with anti-phosphotyrosine antibodies); type: cell-based, Chinese hamster; conditions: CHO cells, 5 μM or 10 μM, 37° C., 1, 3 or 5 mins, monoclonal antibodies; bands about 35, 60-70, 120 and 38 kD (FIG. 4)
Procedure: Chinese hamster ovary (CHO) cells (Puck, 1985; Gottesman, 1987) and NIH-3T3 cells (NIH), were used in the following experiments. CHO cells were grown at 37° C. in a humidified 5% CO2 atmosphere in 60×15 mm Petri dishes (Falcon) containing F12 medium supplemented with 10% fetal calf serum (FCS) and 2 mM glutamine. When reaching near confluence, the cells were placed under overnight starvation by replacing the medium to F12+2 mM glutamine with 0.1% FCS. The stimulation experiments were performed with cells which were under starvation for 12-18 hours.
(§1) The cyclic phosphates 1,3 cGP, 1,3 cPP, 1,2 cGP, 1,2 cPP, P-1,3 cGP and P-1,3 cPP and the controls αGP and βGP were dissolved in HBSS, or methanol to form stocks of 1 mM or 10 mM. They were diluted into the cell culture medium to a final concentration of up to 20 μM. At the assigned stimulation time (0.5-20 min.) the medium was aspirated under vacuum and the cells were washed 3 times with cold (4° C.) phosphate buffered saline (PBS). […] The protein concentration in each sample, as evaluated by the Bradford assay, was in the range of 1-1.5 mg/ml. […] Bound antibodies were detected by horseradish peroxidase-conjugated anti-rabbit antibodies (Transduction Laboratories, Lexington Ky.) after 2 hours incubation at room temperature, using the conventional ECL detection method. […]

[4] = system: protein kinases of CHO cells (P42 MAPK (ERK 2)); assay: In-gel kinase assay in the presence of MBP; type: cell-based, Chinese hamster; conditions: 2 μM for 2 and 5 minutes (FIG. 6)
Procedure: Phosphorylated cell proteins were separated by SDS-PAGE using a gel that was copolymerized with MBP (0.5 mg/ml) and treated as described (Karunuguran et al., EMBO J. 15:254-264, 1996). After electrophoresis, the gel was fixed with isopropanol and denatured using 6M Urea. Renaturation was achieved by gradual removal of the excess of urea followed by extensive washings in a renaturing buffer (16 h, 4° C.) and in a buffer containing […] HEPES pH 7.6, and 20 mM MgCl2 (30 min, 30° C.). The gel was then subjected to phosphorylation in a buffer containing 20 mM HEPES pH 7.6, 20 mM MgCl2, 2 mM DTT, 20 μM ATP and […] [y^32P]-ATP (30° C. for 120 min). Finally the gel was extensively washed, dried, and subjected to autoradiography.
(§2) The in-gel kinase assay in the presence of MBP was applied as described in Materials and Methods above to detect stimulation of protein kinases by the cyclic phosphates. CHO cells were treated either with medium (0 control), or with 2 μM, α GP or β GP for 2 minutes, 2 μM […] for 2 and 5 minutes and […] 1,3-cPP for 2 minutes after which the cells were lysed and analyzed.

Raf1/MAPK cascade = assay: Immunoprecipitation kinase assays (Raf-1, MAPK); type: cell-based, Chinese hamster; conditions: CHO cells, 2 μM for 2 and 5 minutes (FIG. 6)
Procedure: (§3) (v) Immunoprecipitation kinase assays. Raf-1 Activity was determined by immunoprecipitation with anti-Raf-1 C terminus antibodies (Santa Cruz Biotech, CA) using recombinant MEK1 as a substrate as previously described (Seger, 1994). Mitogen-activated protein kinase (MAPK) activity was determined by immunoprecipitation with anti-ERK2 C terminus antibodies (Santa Cruz Biotech, CA) using MBP as a substrate (Seger, 1994). Jun N-terminal kinase (JNK) activity was determined by purifying the JNK on a GST-Jun (1-97) column followed by phosphorylation (Hibi, 1993).
as §2
(§4) Their apparent molecular weights were around MW of 35-40, 55 and 62 kD. The 35-40 kD protein kinase which was activated by 1,3-cGP (E) could be assigned to the P42 MAPK (ERK 2). In addition, cells were treated as described above and then subjected to Raf-1, MAPK and IP kinase assays and these are presented in the first and second rows of FIG. 6. In parallel, JNK assay was performed (third row, […]).

[5] = system: Jun N-terminal kinase (JNK); assay: JNK assay (GST-Jun substrate); type: cell-based, Chinese hamster; conditions: CHO cells, 2 μM for 2 and 5 minutes (FIG. 6)
Procedure: as §3, §4

cell lysate phosphatases = assay: Inhibition of phosphatase activity of cell lysate (PNPP substrate); type: biochemical; conditions: 50 μM, 50 mM PNPP, 90 minutes at 37° C., pH 7.4
Procedure: Inhibition of phosphatase activity of cell lysate by cyclic phosphates was assayed in 1.0 ml of 50 mM Tris-HCl buffer, pH 7.4, containing 50 mM p-nitrophenyl phosphate, PNPP, as a substrate. Reaction was initiated by the addition of crude cell lysate (100 μg/ml final protein concentration) and terminated after 90 minutes at 37° C. by an addition of 50 μl of 1M NaOH. […] Assays were conducted under the same conditions as above in the presence of 50 μM cyclic phosphate. The enzyme activity in the absence of inhibitor was taken as 100% activity.

[6] = system: estrogen receptor (ER) in human ERmod T47D cells; assay: Estrogen receptor expression in T47D cells (immunostaining, score 0 to 4); type: cell-based; conditions: 1 μM, 7 days of incubation (FIG. 11)
Procedure: Tumor cells were incubated for 7 days in the absence or presence of 1 μM of 1,3 cGP. On each of the noted days, cells were harvested by trypsinization, washed and fixed by dryng in air. The preparations were then peroxidased and protein blocked. Following this, the cells were labeled with first antibody (mouse-anti-human ER) for 30 mins. at room temperature (RT). After washing, cells were incubated with biotinylated second antibody for 10 min at RT. After washing, the cells were incubated with streptavidin conjugated to horse radish peroxidase and color reaction with the DAB reagent was performed. Background staining was done with hematoxylin (mayer) and the fixation process was completed with water, alcohol and finally xylene immersions. The slides were covered, sealed and examined by a pathologist in a blind fashion. Expression of the ER was scored on a scale of 0 to 4 pulses, where 4 pulses is the highest score.

CHO cells = assay: Uptake of 32P labeled 1,3-cPP by CHO cells; type: cell-based, Chinese hamster; conditions: intact CHO cells, increasing amounts of unlabeled compound
Procedure: After 2 washings with PBS the cells were disintegrated in 1 M NaOH and radioactivity was scored with a β counter. The insert presents the magnified uptake profile for short incubations (up to 2 minutes) where the intercept (0 time incubation) corresponded to approximately 3×10^6 molecules per cell, while at equilibrium (above 2 hours incubation) incorporation corresponded to approximately 2×10^8 molecules per cell.

perforated CHO cells = assay: Intracellular binding in perforated CHO cells (displacement of 1,3-cP32P); design: species or system Chinese hamster; conditions: 20 μM 1,3-cP32P, 5 minutes at 4° C., increasing amounts of competitor (FIG. 9)
Procedure: Radioactivity was scored after 2 washings with PBS at 4° C. as above. […] In this set of experiments the number of displaceable (i.e. specifically bound) ligands was estimated to be in the range of 10^7-10^8 per cell.

[7] = system: intracellular proteins of target cells (CHO and NIH-3T3 cells); assay: Phosphorylation of intracellular proteins of target cells (general statements); type: cell-based
Procedure: In accordance with the invention, the phosphorylating activity of the CGs may be measured by any of the methods known in the art. Generally, following incubation of the CG with the target cells, the cells are lysed, the protein concentration in each sample is determined and the level of phosphorylation of the proteins is determined using known methods and suitable and available polyclonal or monoclonal antibodies. Typically, phosphorylation occurs on the tyrosine residues of the protein and such phosphorylation is determined using either polyclonal or monoclonal anti phosphotyrosine antibodies (such as those described below in the Examples). However, in some cases, phosphorylation occurs on the threonine or serine components of the proteins in which case polyclonal or monoclonal anti phosphothreonine or anti phosphoserine antibodies may be used.
as §1, with “mM.” for “mM. They were diluted into the cell culture medium to a final concentration of up to 20 μM. At the assigned stimulation time (0.5-20 min.) the medium was aspirated under vacuum and the cells were washed 3 times with cold (4° C.) phosphate buffered saline (PBS).”

insulin receptor = assay: Tyrosine phosphorylation of the insulin receptor in CHO-T cells; type: cell-based; conditions: 20 mins
Procedure: Group 4: 0.1 μM 1,3, cPP only.
Tyrosine phosphorylation was determined using anti-phosphotyrosine antibody (as described above).

- hydrolysis to the linear form in PBS [1]: No hydrolysis
- hydrolysis to the linear form by cell lysate [2]: No hydrolysis
Compound: O=P1(O)OCC(CO)O1 (stereo not drawn) [1,2 cGP, 1,2 cyclic glycerophosphate]

- hydrolysis to the linear form in PBS [1]: No hydrolysis
- hydrolysis to the linear form by cell lysate [2]: No hydrolysis
Compound: CC1COP(=O)(O)O1 (stereo not drawn) [1,2 cPP, 1,2 cyclic propanediol phosphate]
- kinetics of tyrosine phosphorylation [3]: enhanced tyrosine phosphorylation

- effect on the JNK pathway [5]: unaffected
Compound: O=P1(O)OCC(O)CO1 (stereo not drawn) [1,3 cGP(E)]
- stimulation of 35-40 kD protein kinase (P42 MAPK, ERK 2) [4]: activated
- activation of the Raf1/MAPK cascade (Raf1/MAPK cascade): ≤ 5 fold
- inhibition of the lysate phosphatases (in words) (cell lysate phosphatases): limited inhibition

- hydrolysis to the linear form in PBS [1]: No hydrolysis
- hydrolysis to the linear form by cell lysate [2]: No hydrolysis
Compound: O=P1(O)OCC(O)CO1 (stereo not drawn) [1,3 cGP, 1,3 cyclic glycerophosphate]
- level of expression of estrogen receptor (ER) versus growth medium alone [6]: increases
- level of expression of estrogen receptor (ER) versus growth medium alone ([6]; listed as 1,3, cGP): significantly higher
- inhibition of cell lysate phosphatase activity (cell lysate phosphatases): approximately 10%
- effect of unlabeled competitor on the uptake profile of 1,3-cP32P (CHO cells): remained essentially unaltered
- displacement of 1,3-cP32P in perforated CHO cells (perforated CHO cells): clear binding competition

Compound: O=P(O)(O)OCC(O)CO (stereo in doubt) [αGP, L-α-glycerophosphate, reference compound]
- level of phosphorylation in intracellular proteins after extracellular application [7]: lack this activity
- displacement of 1,3-cP32P in perforated CHO cells (perforated CHO cells): ineffective

Compound: O=P(O)(O)OC(CO)CO [βGP, β-Glycerophosphate]
- level of phosphorylation in intracellular proteins after extracellular application [7]: lack this activity

Compound: insulin: hormone; binding to its receptor results in tyrosine phosphorylation of 117 kD and 200 kD receptor proteins
- phosphorylation of the insulin receptors (insulin receptor; 0.1 nM insulin): partial phosphorylation
- phosphorylation of the insulin receptors (insulin receptor; 1 nM insulin): maximal phosphorylation
